The source of these data is a melting point compilation (Tetko et al.; mined from patent text by program, amines drawn as free bases though some values may be those of a salt).

`CC(=O)N1c2c(ccn3c(C)c(C)nc23)[C@@H](O)[C@H](O)[C@H]1c1ccccc1` had a melting point of 260 to 261 °C. To `O=C(c1ccc(O)cc1)c1c(F)c(F)c(F)c(F)c1F` belongs 138 to 140 °C; to `CN1C(=O)C(c2ccccc2)NC(=O)/C1=C/c1c[nH]c2ccccc12` (stereo not drawn), 120 to 123 °C; to `CC1=NCCN1c1cnc2[nH]cc(C(=O)C(C)(C)C)c2n1`, 235 to 236 °C. Under `OCc1nn(-c2ccc(Br)cc2)c2c1CCCC2` stands 126 to 127 °C; under `Cc1ccc(S(=O)(=O)NCCNC(C)C)cc1`, 76 to 78 °C; under `C=CCNC(=NC#N)Nc1ccc(C2=NNC(=O)CC2C)cc1` (stereo not drawn), 224 to 226 °C. In turn, `Cc1cccc(C(=O)NC(Nc2c(Nc3cccnc3)c(=O)c2=O)C(C)(C)C)c1` (stereo not drawn) had a melting point of 236 to 237 °C. `C[C@](O)(COc1ccc(F)cc1)C(=O)Nc1ccc(C#N)c(C(F)(F)F)c1` gave a melting point of 139 to 140 °C. `N#Cc1ccc(F)cc1-c1ccc(F)cc1` showed a melting point of 111 to 113 °C. `CCS(=O)(=O)N[C@H](C(=O)NCCc1ccc(OC/C=C\c2ccc(Cl)cc2)c(OC)c1)C(C)C` displayed a melting point of 141 to 143 °C. `CN(C)C1(c2ccccc2)CCC(c2[nH]c3ccccc3c2Cc2ccccc2)CC1` (stereo not drawn): the melting point is 194 to 199 °C.

Take `CCOC(=O)c1cc2c(Cl)ncnc2[nH]1`: the melting point fell in the range of 219 to 221 °C. Take `CC(=O)OC1CSC(Oc2cnc(-c3ccncc3)c(F)c2)C(OC(C)=O)C1OC(C)=O` (stereo not drawn): the melting point turned out to be 165 °C.

As for `CCCc1c(OCCCCCCCCCCC(=O)O)ccc(C(C)=O)c1O`, the melting point lay in the range of 57 to 58 °C. On to `CC(=Cc1ccc(C(C)C)cc1)c1ccc2c(c1)C(C)(C)CCC2(C)C`, for which the melting point was 86 to 87 °C.

Consider `CNc1nc(Cc2cc(OC)c(OC)c(OC)c2)nc2sc(C#N)c(C)c12`, for which the melting point was in the range of 194 to 195 °C. Under `COc1ccc(-n2nc(N3CCN(C#N)CC3)c3ccccc32)cc1` stands 118 to 120 °C. Consider `COc1cc(C=CC(CCc2ccco2)=NO)ccc1O`, for which the melting point was in the range of 110 to 120 °C.

On to `Cc1cc(-c2ccc(C(F)(F)F)cc2)cc(-c2cccc(-c3cccc(S(=O)(=O)NC(=O)C(C)C)c3)n2)n1`, for which the melting point was 190 °C. To `CCOCc1nc2c(N)nc3ccccc3c2n1CCCC(=O)OCC` belongs 129 to 131 °C.

On to `CCCCC(Oc1ccc(CCNS(=O)(=O)c2ccc(Cl)cc2)cc1)C(=O)O` (stereo not drawn), for which the melting point is 138 to 139 °C. Consider `CCN1CC(SCC2CC2)(C(F)(F)F)c2cc(Cl)ccc2NC1=O` (stereo not drawn), for which the melting point fell in the range of 152 to 156 °C. Under `O=C(O)Cn1c(=O)c(=O)[nH]c2ccc3ccc(-n4ccc(CNC(=O)Nc5ccccc5)c4)cc3c21` stands over 230 °C. To `COc1ccc(N2CCN(Cc3n[nH]c4c(F)cccc34)CC2)cc1` belongs 178 to 179 °C; to `CC1c2ccccc2-c2ccccc2N1S(=O)(=O)c1ccc(O)c(CO)c1` (stereo not drawn), 182 to 184 °C; to `Cc1ccnc2c1C(=NNC(=N)N)CC(c1cc(Cl)sc1Cl)C2` (stereo not drawn), 250 to 251 °C.

`N=C(O)c1cc(C(O)=Nc2ccc(O)cc2)c(C(=O)O)cc1C(=O)O` had a melting point of 300 °C.

In turn, `COc1cc(N)c(-c2ncn[nH]2)cc1OC` registered a melting point of 205 to 210 °C. On to `CC(=O)N(C)CCCC(=O)OC1c2ccccc2C(=O)N1c1ccc2ccc(Cl)nc2n1` (stereo not drawn), for which the melting point came out at 170 °C. As to `O=C(Oc1ccccc1)N1C=CC(c2c(-c3ccc(F)cc3)nc3n2CCS3)C=C1`, the melting point lay within 164 to 166 °C. For `NC(=O)Cc1c[nH]c2ccc(OCc3ccccc3)cc12`, the melting point was 137 to 140 °C. In the case of `CNC(=O)c1cc(C)ccc1Nc1nc(Cl)ncc1Cl`, the melting point lay in the range of 192 to 210 °C.

For `COC(=O)c1cn(-c2ccc(O)cc2C)c(C2CCNCC2)cc1=O`, the melting point was 226 to 228 °C.

`COc1ccc2c(c1OC)CC1C(=O)N(Cc3ccccc3)C(=O)C21` (stereo not drawn) displayed a melting point of 130 to 132 °C. `CC(C)C(=O)NC[C@H]1CN(c2ccc3c(c2)CCCc2cnn(C(=O)C(C)C)c2-3)C(=O)O1` came in with a melting point of 75 to 80 °C. `O=C1CCCN1c1cccc(-n2cnc3cc(-c4ccoc4)cnc32)c1` showed a melting point of 208 to 210 °C. `Cc1c(C(N)=O)c2ccccc2n2c(N3CCCC3)nc(-c3noc(C4CC4)n3)c12` registered a melting point of 206 to 209 °C.

With `COc1ccc(S(=O)(=O)N(CC(N)=O)c2ccc(Cl)cc2C(O)c2ccccc2C(F)(F)F)cc1OC` (stereo not drawn), the melting point came to 129 °C. Under `CC(C)(C)OC(=O)N[C@@H]1C(=O)N[C@H]1C1CCCCC1` (relative stereo) stands 130 to 132 °C; under `CCC(=O)Nc1c(C)nn(C)c1C#N`, 153 to 155 °C. For the compound `O=C(O)Cc1c(C(=O)O)c2cc(Oc3cccc(OC(F)(F)F)c3)ccc2n1-c1ccc(OC(F)(F)F)cc1`, the melting point fell in the range of 188 to 193 °C. For `COc1ccc(N2N=C(C)C(C(=O)Nc3ccc(F)cc3)C2=O)cc1` (stereo not drawn), the melting point was 125 to 128 °C. `O=[N+]([O-])c1ccc(N2C3C4CCC(C4)C32)c2nnoc12` (stereo not drawn) yielded a melting point of 132 to 133 °C.

On to `CC(C)N1C(=O)c2ccccc2N(C#N)S1(=O)=O`, for which the melting point was 99 to 101 °C. For `COC1Nc2c(ccc(C)c2O)C(=O)N2CCCC12` (stereo not drawn), the melting point is 152 to 156 °C. Under `CCOC(=O)C[C@@H]1C(=O)N(S(=O)(=O)c2ccc(OC)cc2)C=C[C@@H]1c1ccco1` stands 98 to 100 °C. Consider `CC[C@H]1CC[C@H](c2ccc(CCc3ccc(OC(F)F)cc3)cc2)CC1`, for which the melting point turned out to be 51 °C. The compound `O=Cc1cccc(/C=C/c2ccc3cc(F)ccc3n2)c1` registered a melting point of 110 to 111 °C. Compound `NS(=O)(=O)c1ccc(-c2nc(-c3cnn4c(C(F)(F)F)cc(-c5ccc(C(F)(F)F)cc5)nc34)no2)s1` came in with a melting point of 272 °C.

Compound `c1ccc(CCn2cnc3cnc4ccccc4c32)cc1` came in with a melting point of 105 to 108 °C.

With `CN1C(=O)Cc2cc(C(=O)[C@H]3CC[C@H]3C(=O)O)ccc21` (relative stereo), the melting point is 210 to 212 °C. Turning to `O=Cc1sc(Cl)c(Cl)c1Cl`, the melting point lay within 81 to 82 °C. Regarding `O=C(Nc1nccs1)C(CC1CCCC1)c1ccc(S(=O)(=O)C(F)(F)F)cc1` (stereo not drawn), the melting point was in the range of 48 to 52 °C. `CC(C)N1OCCC(C(O)c2cc(C(C)(C)C)c(O)c(C(C)(C)C)c2)C1=O` (stereo not drawn) had a melting point of 150 to 153 °C. Compound `Cc1nnc(-c2ccc3occ(-c4cnn(Cc5ccccc5F)c4)c3c2)o1` returned a melting point of 142 to 143 °C. `N=C(NCc1ccn(C2=CC3=C(CC2)CCc2[nH]c(=O)c(=O)n(CC(=O)O)c23)c1)Nc1ccccc1` showed a melting point of over 225 °C. On to `CC(C)c1nn(-c2ccccn2)c(-c2ccc(F)cc2)c1Br`, for which the melting point lay in the range of 98 to 100 °C. `COc1cc2[nH]ccc2cc1Br` returned a melting point of 110 to 111 °C.

In turn, `CCCCCCCCCCc1ccc(C(=O)N(O)CCCC(=O)O)cc1` showed a melting point of 98 to 100 °C. As for `N#CCc1c[nH]c2ccc(CS(=O)(=O)NCc3ccccc3C(N)=O)cc12`, the melting point is 202 to 206 °C. With `CC1C=CCCC1C1OC(=O)NC1=O` (stereo not drawn), the melting point lay in the range of 97 to 103 °C. Under `Cc1cc2nncn2nc1-c1ccc(C(N)=S)cc1` stands 268 to 272 °C.

Usually melting point stands for the temperature of the solid-liquid transition.
